From paper PMC7997397, ““Bottom-Up” Strategy for the Identification of Novel Soybean Peptides with Angiotensin-Converting Enzyme Inhibitory Activity” (Journal of Agricultural and Food Chemistry, 2020)
Read-outs that look alike come from different tables or passages of the source. Ends that are not written are not given here. Peptide text beside a SMILES is read from it.

Tests used:
[1] = test system: ACE; details: read-out: IC50 ACE inhibition in vitro, cited from earlier work
From the text: It is well-recognized that soybean proteins contain many bioactive peptides exerting multiple health benefits, that is, hypocholesterolemic, antidiabetic, antitumor, and hypotensive activity. […] Moreover, after the hydrolysis of soybean proteins with pepsin, five peptides have been identified showing in vitro and in vivo hypotensive activity. […] Their bl ...

[2] = biological target: T1, ACE in human intestinal Caco-2 cells (Homo sapiens, UniProt P12821); experiment: ACE activity cell-based assay (in situ) in Caco-2 cells; details: nondifferentiated Caco-2 cells 5 × 10^4/well, 0.1–250 μM, 24 h, 37 °C; ACE activity in cell lysates with fluorescent substrate; mean ± s.d. of three independent experiments in triplicate
T1 construct: endogenous in cells; host or cells: Caco-2 cells (INSERM, Paris)
T1 sequence (P12821 30-1306): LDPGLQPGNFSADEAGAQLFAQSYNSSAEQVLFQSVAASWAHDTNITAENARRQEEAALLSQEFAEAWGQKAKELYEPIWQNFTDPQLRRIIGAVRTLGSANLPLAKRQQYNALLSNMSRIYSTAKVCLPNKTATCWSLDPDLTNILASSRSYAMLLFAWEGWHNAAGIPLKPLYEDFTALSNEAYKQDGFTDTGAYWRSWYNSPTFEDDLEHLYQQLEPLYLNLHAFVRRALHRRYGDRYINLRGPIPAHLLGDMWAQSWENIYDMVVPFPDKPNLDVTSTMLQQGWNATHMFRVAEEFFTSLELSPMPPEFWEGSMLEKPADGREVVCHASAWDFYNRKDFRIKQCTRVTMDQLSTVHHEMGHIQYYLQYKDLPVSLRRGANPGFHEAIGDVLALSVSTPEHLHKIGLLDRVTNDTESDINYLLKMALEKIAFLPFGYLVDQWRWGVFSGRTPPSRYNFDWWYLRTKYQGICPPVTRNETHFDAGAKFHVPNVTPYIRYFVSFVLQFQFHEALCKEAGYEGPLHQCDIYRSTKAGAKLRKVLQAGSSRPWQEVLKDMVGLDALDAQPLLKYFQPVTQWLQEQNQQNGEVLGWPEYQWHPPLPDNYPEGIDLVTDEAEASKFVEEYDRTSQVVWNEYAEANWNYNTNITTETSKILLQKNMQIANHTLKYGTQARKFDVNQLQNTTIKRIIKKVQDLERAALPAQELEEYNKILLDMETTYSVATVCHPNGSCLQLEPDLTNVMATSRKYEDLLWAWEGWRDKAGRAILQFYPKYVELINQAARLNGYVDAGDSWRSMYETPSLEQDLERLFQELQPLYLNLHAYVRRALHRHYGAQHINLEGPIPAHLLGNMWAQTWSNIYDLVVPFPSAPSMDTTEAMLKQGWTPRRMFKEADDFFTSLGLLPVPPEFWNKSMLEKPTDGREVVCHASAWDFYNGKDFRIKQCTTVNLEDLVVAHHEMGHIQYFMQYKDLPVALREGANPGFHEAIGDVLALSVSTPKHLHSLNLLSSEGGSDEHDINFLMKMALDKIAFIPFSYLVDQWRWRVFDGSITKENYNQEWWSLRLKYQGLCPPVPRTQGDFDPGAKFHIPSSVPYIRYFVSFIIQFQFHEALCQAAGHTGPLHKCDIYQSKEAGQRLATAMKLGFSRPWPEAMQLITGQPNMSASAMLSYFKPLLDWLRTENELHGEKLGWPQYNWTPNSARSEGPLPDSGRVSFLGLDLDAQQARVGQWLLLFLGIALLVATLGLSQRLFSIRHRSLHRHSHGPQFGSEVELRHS
Method: (§1) Soy1 and LPYP were tested on Caco-2 and HK2 cells (5 × 10^4/well in black 96-well plates) in 0.1–250.0 μM concentration ranges or vehicle in growth medium for 24 h at 37 °C. For a 2D cell culture on RADA16-Soy1 and RADA-LPYP hydrogels, Caco-2 cells were seeded on the surface of the abovementioned hydrogels at a density of 5 × 10^4/well. On the next day, the ACE inhibitory activity was measured using an ACE1 Activity Assay Kit (BioVision, Milpitas Blvd., Milpitas, CA, USA) following the manufacturer’s protocol. See the “Supporting Information” for further details on Acer activity cell-based assay.
(§2) In particular, Caco-2 and HK-2 cells (5 × 10^4/well) were treated with Soy1 and LPYP (0.1–250 μM) overnight. The following day, cells were lysated and the ACE activity was measured directly in the cell lysates using a fluorescent ACE substrate; in this assay, the fluorescent signal is proportional to the enzyme activity.
(§3) Figure 2 In situ evaluation of the ACE activity. […] Data represent the mean ± s.d. of three independent experiments performed in triplicate. […]
absence of carryover effects. […]
ACE activity cell-based assay. […] The next day, The ACE inhibitory activity was measured using the ACE1 Activity Assay Kit (Biovision, Milpitas Blvd., Milpitias, CA, USA) following the manufacture’s protocol. […]

[3] = test system: differentiated Caco-2 cells; details: 2 h of incubation in the apical side of monolayers; cited from earlier work
From the text: Mature enterocytes represent the first physiological barrier that bioactive food peptides encounter after ingestion; therefore, their absorption is a dynamic proces ...

[4] = biological target: T2, ACE in human kidney HK-2 cells (Homo sapiens, UniProt P12821); experiment: ACE activity cell-based assay (in situ) in HK-2 cells; details: for IC50: renal HK-2 cells 5 × 10^4/well, 0.1–250 μM, 24 h, 37 °C, ACE activity in cell lysates with fluorescent substrate, mean ± s.d. of three independent experiments in triplicate
T2 construct: endogenous in cells; host or cells: HK-2 cells (ATCC)
T2 sequence (P12821 30-1306): as above
Method: as §1, §2, §3
absence of carryover effects. The peptides were identified by comparing their retention times, MS profiles, and MS/MS fragmentation spectra with those of authentic standards.
ACE activity cell-based assay. […] The next day, The ACE inhibitory activity was measured using the ACE1 Activity Assay Kit (Biovision, Milpitas Blvd., Milpitias, CA, USA) following the manufacture’s protocol.
Briefly, cells were scraped in 30.0 μL of ice-cold ACE lysis buffer and transferred in an ice-cold microcentrifuge tube. […] Total proteins were quantified by Bradford method, and 2.0 μg of proteins (the equivalent of 2 μL) were added to 18.0 μL of ACE lysis buffer in each well in a black 96-well plates with clear bottoms. […] Then, 20.0 μL of 4% of ACE substrate (in assay buffer) was added in each well except the background one and the fluorescence (Ex/Em 330/430 nm) was measured in a kinetic mode for 10 min at 37 °C using […]

[5] = In vitro gastrointestinal digestion with pepsin and pancreatin; type: in vitro ADME; details: peptide 100 μM; pepsin 1:100 enzyme-to-substrate, pH 2.0, 37 °C, 90 min, then pancreatin 1:50, pH 7.2, 37 °C, 150 min; HPLC-Chip ion trap MS; mean ± s.d. of three independent experiments in triplicate; read-out: degraded after codigestion with pepsin and pancreatin vs undigested peptide
Method: Pepsin solution (4 mg/mL in NaCl) was added to Soy1 and LPYP (100 μM) at a 1:100 enzyme-to-substrate ratio (pH 2.0). The digestion was conducted at 37 °C for 90 min under continuous stirring, and then, the pH was adjusted to 7.2 with 1 M NaOH in order to inactivate the enzyme. Then, pancreatin (4 mg/mL in H2O) was added at a 1:50 enzyme-to-substrate ratio. After digestion, at 37 °C for 150 min, the enzyme was inactivated by heating at 95 °C for 10 min. Further details regarding the analysis are available in the “Supporting Information”.
Their metabolic propensity to be degraded by peptidases, which are physiologically active along the entire gastrointestinal tract, might dramatically influence the bioactivity of food peptides. The literature provides many studies dealing with the assessment of food bioactive peptide stability to the simulated gastric digestion.[22],[23] In order to in-depth characterize the multifunctional behavior of Soy1 and LPYP, their stability toward the in vitro gastric digestion was assessed using pepsin and pancreatin.
Figure 1 In vitro gastrointestinal digestion. […]
In vitro digestion of Soy1 and LPYP. […] Soy1 and LPYP samples undigested and after digestion were analyzed on a SL IT mass spectrometer interfaced with a HPLC- Chip Cube source (Agilent Technologies, Palo Alto, CA, USA). […] A blank was analyzed between samples to ensure

[6] = peptides from pepsin hydrolysis of soybean proteins
[7] = soybean peptides reported in the literature

IYLL [peptide from pepsin hydrolysis of soybean proteins]
IC50 [1, 6]: 42 µM

IAVPTGVA [Soy1, IAVPTGVA]
IC50 [2]: 14.7 ± 0.28 µM
absorption by differentiated Caco-2 cells [3]: better absorbed than LPYP
relative ACE inhibitory activity, renal (HK-2) vs intestinal (Caco-2) level ([4]; comparison of IC50 values in HK-2 and Caco-2 cells): twofold more active at the renal level than at the intestinal level
IC50 [4]: 6 ± 0.35 µM
metabolised at 4 h, 100 μM [5]: 27.7 ± 0.3%

LPHF
IC50 [1, 7]: 670 µM

LAIPVNKP
IC50 [1, 7]: 70 µM

VMDKPQG [peptide from pepsin hydrolysis of soybean proteins]
IC50 [1, 6]: 39 µM

FFL
IC50 [1, 6]: 37 µM

SPYP [peptide from soybean glycinin hydrolysed by Monascus purpureus acid proteinase]
IC50 [1, 7]: 850 µM

YLAGNQ [peptide from pepsin hydrolysis of soybean proteins]
IC50 [1, 6]: 14 µM

CC(C)C[C@H](N)C(=O)N1CCC[C@H]1C(=O)N[C@@H](Cc1ccc(O)cc1)C(=O)N1CCC[C@H]1C(=O)O [LPYP] (H-LPYP-OH)
IC50 [2]: 5 ± 0.28 µM
IC50 [4]: 6.8 ± 0.2 µM
metabolised at 4 h, 100 μM [5]: 28.5 ± 1.4%
